These results are taken from US20180000085A1, “USE OF PICOLINAMIDE COMPOUNDS WITH FUNGICIDAL ACTIVITY” (DOW AGROSCIENCES LLC, priority 2014, published 2018).

Assay [1] deals with Puccinia triticina. Briefly: Wheat brown rust (PUCCRT) disease control on wheat seedlings. Type of assay: in vivo. Also on record: key to PUCCRT 3DC, HV activity at 100 ppm (% control rating) / PUCCRT disease control, 3DC / PUCCRT 1DP disease control rating, HV activity / PUCCRT 3DC disease control rating, HV activity / PUCCRT 3DC, LV activity at 125.1 g/H (% Control rating) / PUCCRT 1DP, LV activity at 125.1 g/H (% Control rating) / PUCCRT 3DC disease control rating, LV activity at 125.1 g/H / PUCCRT 1DP disease control rating, LV activity at 125.1 g/H / PUCCRT 3DC disease control rating, HV activity at 100 ppm / PUCCRT 1DP disease control rating, HV activity at 100 ppm / HV activity at 100 ppm PUCCRT 3DC (disease control rating) / LV activity at 125.1 g/H PUCCRT 1DP (disease control rating) / LV activity at 125.1 g/H PUCCRT 3DC (disease control rating): A: > 80; B: ≤ 80; C: Not Tested; D: No Activity Observed in the Reported Assay. Conditions: for LV activity at 125.1 g/H PUCCRT 1DP (disease control rating) / LV activity at 125.1 g/H PUCCRT 3DC (disease control rating) / PUCCRT 1DP disease control rating, LV activity at 125.1 g/H / PUCCRT 3DC disease control rating, LV activity at 125.1 g/H / PUCCRT 1DP, LV activity at 125.1 g/H (% Control rating) / PUCCRT 3DC, LV activity at 125.1 g/H (% Control rating): low volume application; for LV activity at 125.1 g/H PUCCRT 1DP (disease control rating) / PUCCRT 1DP disease control rating, HV activity / PUCCRT 1DP, LV activity at 125.1 g/H (% Control rating): 1 Day Protectant; for LV activity at 125.1 g/H PUCCRT 1DP (disease control rating) / LV activity at 125.1 g/H PUCCRT 3DC (disease control rating) / PUCCRT 1DP disease control rating, HV activity / PUCCRT 3DC disease control rating, HV activity: wheat brown rust; for LV activity at 125.1 g/H PUCCRT 3DC (disease control rating) / PUCCRT 3DC disease control rating, HV activity / PUCCRT 3DC, LV activity at 125.1 g/H (% Control rating): 3 Day Curative; for PUCCRT 1DP disease control rating, HV activity / PUCCRT 3DC disease control rating, HV activity: HV application at 100 ppm; for PUCCRT 1DP disease control rating, LV activity at 125.1 g/H: 1 day protectant; for PUCCRT 3DC disease control rating, LV activity at 125.1 g/H: 3 day curative. As for the experimental part:
All fungicides were evaluated using the aforementioned method for their activity vs. all target diseases, unless stated otherwise. Wheat leaf blotch and brown rust activity were also evaluated using track spray applications, in which case the fungicides were formulated as EC formulations, containing 0.1% Trycol 5941 in the spray solutions. Wheat plants (variety Yuma) were grown from seed in a greenhouse in 50% mineral soil/50% soil-less Metro mix until the first leaf was fully emerged, with 7-10 seedlings per pot. These plants were inoculated with an aqueous spore suspension of Zymoseptoria tritici either prior to or after fungicide treatments. After inoculation the plants were kept in 100% relative humidity (one day in a dark dew chamber followed by two to three days in a lighted dew chamber at 20° C.) to permit spores to germinate and infect the leaf. The plants were then transferred to a greenhouse set at 20° C. for disease to develop. When disease symptoms were fully expressed on the 1st leaves of untreated plants, infection levels were assessed on a scale of 0 to 100 percent disease severity. Percent disease control was calculated using the ratio of disease severity on treated plants relative to untreated plants. Example B: Evaluation of Fungicidal Activity: Wheat Brown Rust (Puccinia triticina; Synonym: Puccinia recondita f. sp. Tritici; Bayer Code PUCCRT) Wheat plants (variety Yuma) were grown from seed in a greenhouse in 50% mineral soil/50% soil-less Metro mix until the first leaf was fully emerged, with 7-10 seedlings per pot. These plants were inoculated with an aqueous spore suspension of Puccinia triticina either prior to or after fungicide treatments. […] The plants were then transferred to a greenhouse set at 24° C. for disease to develop. Fungicide formulation, application and disease assessment followed the procedures as described in the Example A.

The test system of assay [2] is Zymoseptoria tritici. Put plainly: Leaf blotch of wheat (SEPTTR) disease control on wheat seedlings. Type of assay: in vivo. Also on record: key to SEPTTR 1DP, HV activity at 100 ppm (% control rating) / SEPTTR 3DC, HV activity at 100 ppm (% control rating) / SEPTTR disease control, 1DP / SEPTTR disease control, 3DC / SEPTTR 1DP disease control rating, HV activity / SEPTTR 3DC disease control rating, HV activity / SEPTTR 3DC, LV activity at 125.1 g/H (% Control rating) / SEPTTR 1DP, LV activity at 125.1 g/H (% Control rating) / SEPTTR 1DP disease control rating, LV activity at 125.1 g/H / SEPTTR 3DC disease control rating, LV activity at 125.1 g/H / SEPTTR 3DC disease control rating, HV activity at 100 ppm / SEPTTR 1DP disease control rating, HV activity at 100 ppm / HV activity at 100 ppm SEPTTR 3DC (disease control rating) / HV activity at 100 ppm SEPTTR 1DP (disease control rating) / LV activity at 125.1 g/H SEPTTR 1DP (disease control rating) / LV activity at 125.1 g/H SEPTTR 3DC (disease control rating): A: > 80; B: ≤ 80; C: Not Tested; D: No Activity Observed in the Reported Assay. Particulars: for LV activity at 125.1 g/H SEPTTR 1DP (disease control rating) / LV activity at 125.1 g/H SEPTTR 3DC (disease control rating) / SEPTTR 1DP disease control rating, LV activity at 125.1 g/H / SEPTTR 3DC disease control rating, LV activity at 125.1 g/H / SEPTTR 1DP, LV activity at 125.1 g/H (% Control rating) / SEPTTR 3DC, LV activity at 125.1 g/H (% Control rating): low volume application; for LV activity at 125.1 g/H SEPTTR 1DP (disease control rating) / SEPTTR 1DP disease control rating, HV activity / SEPTTR 1DP, LV activity at 125.1 g/H (% Control rating): 1 Day Protectant; for LV activity at 125.1 g/H SEPTTR 1DP (disease control rating) / LV activity at 125.1 g/H SEPTTR 3DC (disease control rating) / SEPTTR 1DP disease control rating, HV activity / SEPTTR 3DC disease control rating, HV activity: wheat leaf blotch; for LV activity at 125.1 g/H SEPTTR 3DC (disease control rating) / SEPTTR 3DC disease control rating, HV activity / SEPTTR 3DC, LV activity at 125.1 g/H (% Control rating): 3 Day Curative; for SEPTTR 1DP disease control rating, HV activity / SEPTTR 3DC disease control rating, HV activity: HV application at 100 ppm; for SEPTTR 1DP disease control rating, LV activity at 125.1 g/H: 1 day protectant; for SEPTTR 3DC disease control rating, LV activity at 125.1 g/H: 3 day curative. As for the experimental part:
All fungicides were evaluated using the aforementioned method for their activity vs. all target diseases, unless stated otherwise. Wheat leaf blotch and brown rust activity were also evaluated using track spray applications, in which case the fungicides were formulated as EC formulations, containing 0.1% Trycol 5941 in the spray solutions. Wheat plants (variety Yuma) were grown from seed in a greenhouse in 50% mineral soil/50% soil-less Metro mix until the first leaf was fully emerged, with 7-10 seedlings per pot. These plants were inoculated with an aqueous spore suspension of Zymoseptoria tritici either prior to or after fungicide treatments. After inoculation the plants were kept in 100% relative humidity (one day in a dark dew chamber followed by two to three days in a lighted dew chamber at 20° C.) to permit spores to germinate and infect the leaf. The plants were then transferred to a greenhouse set at 20° C. for disease to develop. When disease symptoms were fully expressed on the 1st leaves of untreated plants, infection levels were assessed on a scale of 0 to 100 percent disease severity. Percent disease control was calculated using the ratio of disease severity on treated plants relative to untreated plants.

Take `COc1cc(O[C@H](C2CC2)[C@H](C)OC(=O)[C@H](C)NC(=O)c2nccc(OC)c2OC(C)=O)ccc1Cl` [Cmpd 1069]: in assay [1], the “LV activity at 125.1 g/H PUCCRT 1DP (disease control rating)” value was “A (> 80)” and the “LV activity at 125.1 g/H PUCCRT 3DC (disease control rating)” value is “A (> 80)”. In assay [2], the “LV activity at 125.1 g/H SEPTTR 1DP (disease control rating)” value is given as “B (≤ 80)” and the “LV activity at 125.1 g/H SEPTTR 3DC (disease control rating)” value was “B (≤ 80)”.

Take `COc1ccnc(C(=O)NC(C)C(=O)OC(C)C(Oc2cccc3ccccc23)C(C)C)c1O` (centres unmarked) [Cmpd 434]: in assay [1], the “PUCCRT 1DP disease control rating, HV activity” value is reported as “A (> 80)” and the “PUCCRT 3DC disease control rating, HV activity” value is “D”. In assay [2], the “SEPTTR 1DP disease control rating, HV activity” value is given as “A (> 80)” and the “SEPTTR 3DC disease control rating, HV activity” value is given as “D”.

As to `CCC(CC)C(Oc1cccc(F)c1)C(C)OC(=O)C(C)NC(=O)c1nccc(OC)c1OC(C)=O` (centres unmarked) [Cmpd 673], in assay [1], the “PUCCRT 1DP disease control rating, LV activity at 125.1 g/H” value is recorded as “A (> 80)” and the “PUCCRT 3DC disease control rating, LV activity at 125.1 g/H” value is given as “B (≤ 80)”. Further, in assay [2], the “SEPTTR 1DP disease control rating, LV activity at 125.1 g/H” value was “B (≤ 80)” and the “SEPTTR 3DC disease control rating, LV activity at 125.1 g/H” value is on record as “A (> 80)”.

With `COc1ccnc(C(=O)N[C@@H](C)C(=O)O[C@@H](C)[C@H](Oc2ccc(-c3ccccc3)cc2)C(C)C)c1OC(C)=O` [Cmpd 625], in assay [1], the “PUCCRT 1DP, LV activity at 125.1 g/H (% Control rating)” value is reported as “A (> 80)” and the “PUCCRT 3DC, LV activity at 125.1 g/H (% Control rating)” value is recorded as “B (≤ 80)”. Moreover, in assay [2], the “SEPTTR 1DP, LV activity at 125.1 g/H (% Control rating)” value is listed as “D” and the “SEPTTR 3DC, LV activity at 125.1 g/H (% Control rating)” value was “D”.

For the molecule `CCC(CC)[C@@H](OCC1CC1)[C@H](C)OC(=O)[C@H](C)NC(=O)c1nccc(OC)c1OC(C)=O` [Cmpd 555], in assay [1], the “PUCCRT 1DP, LV activity at 125.1 g/H (% Control rating)” value was “A (> 80)” and the “PUCCRT 3DC, LV activity at 125.1 g/H (% Control rating)” value was “A (> 80)”. In addition, in assay [2], the “SEPTTR 1DP, LV activity at 125.1 g/H (% Control rating)” value is reported as “B (≤ 80)” and the “SEPTTR 3DC, LV activity at 125.1 g/H (% Control rating)” value was “A (> 80)”.

In the case of `CCC(CC)[C@@H](Oc1ccc(Cl)cc1Cl)[C@H](C)OC(=O)[C@@H](NC(=O)c1nccc(OC)c1O)C(C)C` [Cmpd 408], in assay [1], the “PUCCRT 1DP disease control rating, HV activity” value is given as “B (≤ 80)” and the “PUCCRT 3DC disease control rating, HV activity” value was “D”. For the same molecule, in assay [2], the “SEPTTR 1DP disease control rating, HV activity” value was “B (≤ 80)” and the “SEPTTR 3DC disease control rating, HV activity” value is on record as “D”.

As to `C=CC[C@@H](OCC(=C)C)[C@H](C)OC(=O)[C@H](C)NC(=O)c1nccc(OC)c1OC(C)=O` [Cmpd 1074], in assay [1], the “LV activity at 125.1 g/H PUCCRT 1DP (disease control rating)” value is recorded as “D” and the “LV activity at 125.1 g/H PUCCRT 3DC (disease control rating)” value was “B (≤ 80)”. For the same molecule, in assay [2], the “LV activity at 125.1 g/H SEPTTR 1DP (disease control rating)” value was “D” and the “LV activity at 125.1 g/H SEPTTR 3DC (disease control rating)” value was “D”.

For the molecule `COc1ccnc(C(=O)NC(Cc2ccccc2)C(=O)OC(C)C(Oc2ccccc2)C(C)C)c1OCOC(C)=O` (centres unmarked) [Cmpd 865], in assay [1], the “PUCCRT 1DP disease control rating, LV activity at 125.1 g/H” value is “A (> 80)” and the “PUCCRT 3DC disease control rating, LV activity at 125.1 g/H” value is on record as “A (> 80)”. For the same molecule, in assay [2], the “SEPTTR 1DP disease control rating, LV activity at 125.1 g/H” value is given as “B (≤ 80)” and the “SEPTTR 3DC disease control rating, LV activity at 125.1 g/H” value is reported as “B (≤ 80)”.
